# Results published in US4533675A (priority 1984, dated 1985).
# Where two headings read alike, the source gives them in different places.
# Key:
# [1] = ip injection, data from Brossi et al., J. Med. Chem., 26:1365 (1983); cited from earlier work
# [2] = LD50 in mice after ip injection; format: in vivo
# [3] = system: tubulin protein; assay: Tubulin binding in vitro
compound,measurement,setting,value
"COc1cc2c(c(OC)c1OC)-c1ccc(OC)c(=O)cc1[C@@H](NC(C)=O)CC2 [Colchicine, colchicine]",LD50 in Mice after ip inj,[1],3.0 mg/kg
"COc1cc2c(c(OC)c1OC)-c1ccc(SC)c(=O)cc1[C@@H](NC(=O)Oc1ccccc1)CC2 [Ph H SMe, N-Phenoxycarbonyl-deacetylthiocolchicine]",LD50,"[2]; mouse, in vivo, read-out: LD50 in Mice after ip inj",50 mg/kg
CCOC(=O)N[C@H]1CCc2cc(OC)c(OC)c(OC)c2-c2ccc(SC)c(=O)cc21 [Et H SMe],LD50 in Mice after ip inj,[2],77.1 mg/kg
same,Tubulin Binding in vitro,[3],96
